Experimental data from patent US10004701B2, “Methods and compositions for treating infection” (UNIVERSITY OF ROCHESTER, priority 2012, dated 2018).
Structures can show the parent of a compound that is named as a salt. Where two headings read alike, the source gives them in different places.

Tests used:
Test in all cases: AK assay 384-well format, Prestwick library screening
E. cloacae = format: cell-based, Enterobacter cloacae; conditions: Enterobacter cloacae, 3 h, 50 μM final drug concentration
[1] = tested on: S. aureus strain USA300-0114; format: cell-based, Staphylococcus aureus; conditions: Staphylococcus aureus, USA300, 3 h, 50 μM final drug concentration
E. faecium = format: cell-based, Enterococcus faecium; conditions: Enterococcus faecium, 3 h, 50 μM final drug concentration
E. coli = format: cell-based, Escherichia coli; conditions: Escherichia coli, 3 h
K. pneumoniae = format: cell-based, Klebsiella pneumoniae; conditions: Klebsiella pneumoniae, 3 h, 50 μM final drug concentration
P. aeruginosa = format: cell-based, Pseudomonas aeruginosa; conditions: Pseudomonas aeruginosa, 3 h, 50 μM final drug concentration
[2] = tested on: A. baumannii strain 98-37-09; format: cell-based, Acinetobacter baumannii; conditions: Acinetobacter baumannii, 983709, 3 h, 50 μM final drug concentration
[3] = cutoff for positive-scoring molecules 3-fold increase, read-out: AK-based Prestwick Library Screening Results, E. cloacae (fold increase in extracellular AK activity)
[4] = cutoff for positive-scoring molecules 3-fold increase, read-out: AK-based Prestwick Library Screening Results, S. aureus (fold increase in extracellular AK activity)
[5] = cutoff for positive-scoring molecules 3-fold increase, read-out: AK-based Prestwick Library Screening Results, E. faecium (fold increase in extracellular AK activity)
[6] = cutoff for positive-scoring molecules 3-fold increase, read-out: AK-based Prestwick Library Screening Results, K. pneumoniae (fold increase in extracellular AK activity)
[7] = cutoff for positive-scoring molecules 3-fold increase, read-out: AK-based Prestwick Library Screening Results, P. aeruginosa (fold increase in extracellular AK activity)
[8] = cutoff for positive-scoring molecules 3-fold increase, read-out: AK-based Prestwick Library Screening Results, A. baumannii (fold increase in extracellular AK activity)

CCN(CC)C(C)CN1c2ccccc2Sc2ccccc21 (centres unmarked) [Ethopropazine hydrochloride]
fold induction at 50 µM (E. cloacae; planktonic, cutoff for positive-scoring molecules 3-fold increase, read-out: AK-based Prestwick Library Screening Results, E. cloacae (fold increase in extracellular AK activity)): 1.3 | fold induction at 50 µM ([1]; planktonic, cutoff for positive-scoring molecules 3-fold increase, read-out: AK-based Prestwick Library Screening Results, S. aureus (fold increase in extracellular AK activity)): 0.7 | fold induction at 50 µM (E. faecium; planktonic, cutoff for positive-scoring molecules 3-fold increase, read-out: AK-based Prestwick Library Screening Results, E. faecium (fold increase in extracellular AK activity)): 0.9 | fold induction at 50 µM (E. coli; 50 μM final drug concentration, planktonic, cutoff for positive-scoring molecules 3-fold increase, read-out: AK-based Prestwick Library Screening Results, E. coli (fold increase in extracellular AK activity)): 0.9 | fold induction at 50 µM (K. pneumoniae; planktonic, cutoff for positive-scoring molecules 3-fold increase, read-out: AK-based Prestwick Library Screening Results, K. pneumoniae (fold increase in extracellular AK activity)): 0.8 | fold induction at 50 µM (P. aeruginosa; planktonic, cutoff for positive-scoring molecules 3-fold increase, read-out: AK-based Prestwick Library Screening Results, P. aeruginosa (fold increase in extracellular AK activity)): 1 | fold induction at 50 µM ([2]; planktonic, cutoff for positive-scoring molecules 3-fold increase, read-out: AK-based Prestwick Library Screening Results, A. baumannii (fold increase in extracellular AK activity)): 1

CCCOc1ccc(C(=O)OCCN(CC)CC)cc1N [Proparacaine hydrochloride]
fold induction at 50 µM (E. cloacae; [3]): 1.2 | fold induction at 50 µM [1, 4]: 1.2 | fold induction at 50 µM (E. faecium; [5]): 1 | fold induction at 50 µM (E. coli; 50 μM final drug concentration, cutoff for positive-scoring molecules 3-fold increase, read-out: AK-based Prestwick Library Screening Results, E. coli (fold increase in extracellular AK activity)): 1.3 | fold induction at 50 µM (K. pneumoniae; [6]): 1.1 | fold induction at 50 µM (P. aeruginosa; [7]): 1.1 | fold induction at 50 µM [2, 8]: 1.4

CC[N+](C)(CC)CCOC(=O)C1c2ccccc2Oc2ccccc21 [Methantheline bromide]
fold induction at 50 µM (E. cloacae; planktonic E. cloacae, positive cutoff 3-fold increase, read-out: AK-based Prestwick library screening result, E. cloacae (fold increase in extracellular AK activity)): 1.1 | fold induction at 50 µM ([1]; planktonic S. aureus, positive cutoff 3-fold increase, read-out: AK-based Prestwick library screening result, S. aureus (fold increase in extracellular AK activity)): 0.7 | fold induction at 50 µM (E. faecium; planktonic E. faecium, positive cutoff 3-fold increase, read-out: AK-based Prestwick library screening result, E. faecium (fold increase in extracellular AK activity)): 0.9 | fold induction at 50 µM (E. coli; planktonic E. coli, 50 μM final drug concentration, positive cutoff 3-fold increase, read-out: AK-based Prestwick library screening result, E. coli (fold increase in extracellular AK activity)): 0.9 | fold induction at 50 µM (K. pneumoniae; planktonic K. pneumoniae, positive cutoff 3-fold increase, read-out: AK-based Prestwick library screening result, K. pneumoniae (fold increase in extracellular AK activity)): 0.8 | fold induction at 50 µM (P. aeruginosa; planktonic P. aeruginosa, positive cutoff 3-fold increase, read-out: AK-based Prestwick library screening result, P. aeruginosa (fold increase in extracellular AK activity)): 0.9 | fold induction at 50 µM ([2]; planktonic A. baumannii, positive cutoff 3-fold increase, read-out: AK-based Prestwick library screening result, A. baumannii (fold increase in extracellular AK activity)): 0.8

COc1cccc2c1C(=O)c1c(O)c3c(c(O)c1C2=O)C[C@@](O)(C(C)=O)C[C@@H]3O[C@H]1C[C@H](N)[C@H](O)[C@H](C)O1 [Daunorubicin hydrochloride]
fold induction at 50 µM (E. cloacae; planktonic E. cloacae, […], read-out: AK-based Prestwick Library Screening Results, E. cloacae (increase in extracellular AK activity)): 0.6 | fold induction at 50 µM ([1]; planktonic S. aureus, […], read-out: AK-based Prestwick Library Screening Results, S. aureus (increase in extracellular AK activity)): 2.1 | fold induction at 50 µM (E. faecium; planktonic E. faecium, […], read-out: AK-based Prestwick Library Screening Results, E. faecium (increase in extracellular AK activity)): 2.3 | fold induction at 50 µM (E. coli; planktonic E. coli, 50 μM final drug concentration, […], read-out: AK-based Prestwick Library Screening Results, E. coli (increase in extracellular AK activity)): 0.9 | fold induction at 50 µM (K. pneumoniae; planktonic K. pneumoniae, […], read-out: AK-based Prestwick Library Screening Results, K. pneumoniae (increase in extracellular AK activity)): 0.5 | fold induction at 50 µM (P. aeruginosa; planktonic P. aeruginosa, […], read-out: AK-based Prestwick Library Screening Results, P. aeruginosa (increase in extracellular AK activity)): 0.5 | fold induction at 50 µM ([2]; planktonic A. baumannii, […], read-out: AK-based Prestwick Library Screening Results, A. baumannii (increase in extracellular AK activity)): 0.6

CC(C)N(CCC(C(N)=O)(c1ccccc1)c1ccccn1)C(C)C (centres unmarked) [Disopyramide]
fold induction at 50 µM (E. cloacae; 384-well format, cutoff for positive-scoring molecules 3-fold increase, read-out: AK-based Prestwick Library Screening Results, E. cloacae (increase in extracellular AK activity)): 1 | fold induction at 50 µM ([1]; 384-well format, cutoff for positive-scoring molecules 3-fold increase, read-out: AK-based Prestwick Library Screening Results, S. aureus (increase in extracellular AK activity)): 2.7 | fold induction at 50 µM (E. faecium; 384-well format, cutoff for positive-scoring molecules 3-fold increase, read-out: AK-based Prestwick Library Screening Results, E. faecium (increase in extracellular AK activity)): 0.9 | fold induction at 50 µM (E. coli; 50 μM final drug concentration, 384-well format, cutoff for positive-scoring molecules 3-fold increase, read-out: AK-based Prestwick Library Screening Results, E. coli (increase in extracellular AK activity)): 0.9 | fold induction at 50 µM (K. pneumoniae; 384-well format, cutoff for positive-scoring molecules 3-fold increase, read-out: AK-based Prestwick Library Screening Results, K. pneumoniae (increase in extracellular AK activity)): 0.6 | fold induction at 50 µM (P. aeruginosa; 384-well format, cutoff for positive-scoring molecules 3-fold increase, read-out: AK-based Prestwick Library Screening Results, P. aeruginosa (increase in extracellular AK activity)): 0.9 | fold induction at 50 µM ([2]; 384-well format, cutoff for positive-scoring molecules 3-fold increase, read-out: AK-based Prestwick Library Screening Results, A. baumannii (increase in extracellular AK activity)): 0.9

CCC1(c2ccccc2)C(=O)NCNC1=O [Primidone]
fold induction at 50 µM (E. cloacae; [3]): 1.8 | fold induction at 50 µM [1, 4]: 1.3 | fold induction at 50 µM (E. faecium; [5]): 0.9 | fold induction at 50 µM (E. coli; read-out: AK-based Prestwick Library Screening Results, E. coli (fold increase in extracellular AK activity)): 1 | fold induction at 50 µM (K. pneumoniae; [6]): 0.9 | fold induction at 50 µM (P. aeruginosa; [7]): 1.2 | fold induction at 50 µM [2, 8]: 1.2

CN(C)CCC(c1ccc(Br)cc1)c1ccccn1 (centres unmarked) [Brompheniramine maleate]
fold induction at 50 µM (E. cloacae; planktonic, cutoff for positive 3-fold increase, read-out: AK-based Prestwick Library Screening Results, E. cloacae (fold increase in extracellular AK activity)): 2 | fold induction at 50 µM ([1]; planktonic, cutoff for positive 3-fold increase, read-out: AK-based Prestwick Library Screening Results, S. aureus (fold increase in extracellular AK activity)): 1.1 | fold induction at 50 µM (E. faecium; planktonic, cutoff for positive 3-fold increase, read-out: AK-based Prestwick Library Screening Results, E. faecium (fold increase in extracellular AK activity)): 1 | fold induction at 50 µM (E. coli; 50 μM final drug concentration, planktonic, cutoff for positive 3-fold increase, read-out: AK-based Prestwick Library Screening Results, E. coli (fold increase in extracellular AK activity)): 1.4 | fold induction at 50 µM (K. pneumoniae; planktonic, cutoff for positive 3-fold increase, read-out: AK-based Prestwick Library Screening Results, K. pneumoniae (fold increase in extracellular AK activity)): 1.1 | fold induction at 50 µM (P. aeruginosa; planktonic, cutoff for positive 3-fold increase, read-out: AK-based Prestwick Library Screening Results, P. aeruginosa (fold increase in extracellular AK activity)): 1.1 | fold induction at 50 µM ([2]; planktonic, cutoff for positive 3-fold increase, read-out: AK-based Prestwick Library Screening Results, A. baumannii (fold increase in extracellular AK activity)): 1.2

[H]/N=C(/N)N[C@H]1[C@H](O)[C@@H](O)[C@H](O[C@@H]2O[C@@H](C)[C@](O)(C=O)[C@H]2O[C@@H]2O[C@@H](CO)[C@H](O)[C@@H](O)[C@@H]2NC)[C@@H](N/C(N)=N\[H])[C@@H]1O [Streptomycin sulfate]
fold induction at 50 µM (E. cloacae; planktonic E. cloacae, 384-well, cutoff for positive-scoring molecules 3-fold increase, read-out: AK-based Prestwick Library Screening Results: E. cloacae (increase in extracellular AK activity)): 0.3 | fold induction at 50 µM ([1]; planktonic S. aureus, 384-well, cutoff for positive-scoring molecules 3-fold increase, read-out: AK-based Prestwick Library Screening Results: S. aureus (increase in extracellular AK activity)): 0.4 | fold induction at 50 µM (E. faecium; planktonic E. faecium, 384-well, cutoff for positive-scoring molecules 3-fold increase, read-out: AK-based Prestwick Library Screening Results: E. faecium (increase in extracellular AK activity)): 0.9 | fold induction at 50 µM (E. coli; planktonic E. coli, 50 μM final drug concentration, 384-well, cutoff for positive-scoring molecules 3-fold increase, read-out: AK-based Prestwick Library Screening Results: E. coli (increase in extracellular AK activity)): 0.5 | fold induction at 50 µM (K. pneumoniae; planktonic K. pneumoniae, 384-well, cutoff for positive-scoring molecules 3-fold increase, read-out: AK-based Prestwick Library Screening Results: K. pneumoniae (increase in extracellular AK activity)): 0.3 | fold induction at 50 µM (P. aeruginosa; planktonic P. aeruginosa, 384-well, cutoff for positive-scoring molecules 3-fold increase, read-out: AK-based Prestwick Library Screening Results: P. aeruginosa (increase in extracellular AK activity)): 0.4 | fold induction at 50 µM ([2]; planktonic A. baumannii, 384-well, cutoff for positive-scoring molecules 3-fold increase, read-out: AK-based Prestwick Library Screening Results: A. baumannii (increase in extracellular AK activity)): 0.4
